The pIC50 is −log10 of the IC50, conventionally taken in molar units.

pIC50: −log10 of the molar value.

The source of these data is article PMC4490784, “Compensatory induction of MYC expression by sustained CDK9 inhibition via a BRD4-dependent mechanism” (eLife, 2015).

The target in assay [1] is JAK2(JH1domain-catalytic) (Homo sapiens, UniProt O60674). Briefly: KINOMEscan binding assay. Also on record: JAK2(JH1domain-catalytic); purchased DiscoveRx KINOMEscan. How it is done:
(§1) As there are no commercial or in-house kinase assays available for CDK3, CDK5, CDK11 and CDK13, the inhibitory abilities of i-CDK9 toward these CDKs were thus evaluated in the DiscoveRx KINOMEscan assay, which is based on a proprietary active site-directed competition-binding platform ([Fabian et al., 2005]).
(§2) The inhibitory activity of i-CDK9 for CDK1-CycB (Upstate/Millipore), CDK2-CycA (Invitrogen), CDK4-CycD1 (Novartis), CDK7-CycH-MAT1 (Invitrogen), and CDK9-CycT1 (Invitrogen) was assessed in the AlphaScreen (PerkinElmer, Inc)-based kinase assay developed at Novartis. Briefly, each CDK–cyclin pair was pre-incubated with i-CDK9 for 15 min, followed by addition of kinase substrates (ELK for CDK1 and CDK2, RB for CDK4, and CDK7tide for CDK7 and CDK9). The mixture was incubated at room temperature for additional 4–5 hr. The reaction was stopped and read on Envision (PerkinElmer, Inc). Selectivity against a large panel of over 400 kinases was evaluated using the KINOMEscan platform (DiscoveRx, CA) employing a proprietary active site-directed competition binding assay ([Fabian et al., 2005]). The assay was conducted at two different concentrations of i-CDK9 (1 and 10 µM) by DiscoveRx.

Another assay concerns the target T1, BTK (Homo sapiens, UniProt Q06187).
T1 construct: purchased DiscoveRx KINOMEscan
Briefly: biochemical binding or enzymatic assay. As to conditions: Novartis. As to the method:
(§3) Finally, the selectivity profile of i-CDK9 toward other non-CDK kinases was also assessed using the KINOMEscan platform. […] Except for CLK4, for which no suitable assay was available, the rest of the kinases plus a selected group of others were re-examined for the concentration-dependent effect of i-CDK9 in either functional kinase assays or binding assays. […] Indeed, it has recently been reported that DYRK1A acts as a Pol II CTD Kinase at its target gene promoters ([Di Vona et al., 2015]).

Assay [2] deals with T2, TYK2(JH1domain-catalytic) (Homo sapiens, UniProt P29597).
T2 construct: TYK2(JH1domain-catalytic)
Briefly: biochemical binding or enzymatic assay. As to conditions: Novartis. How it is done:
as §3

In a further assay the target is T3, FAK (Homo sapiens, UniProt Q05397).
T3 construct: purchased DiscoveRx KINOMEscan
Briefly: biochemical binding or enzymatic assay. Particulars: Novartis. As to the method: as §3

A further assay concerns the target T4, ALK (Homo sapiens, UniProt Q9UM73).
T4 construct: purchased DiscoveRx KINOMEscan
Briefly: biochemical binding or enzymatic assay. As to conditions: Novartis. How it is done:
as §3

For another assay, the target named is T5, FLT3 (Homo sapiens, UniProt P36888).
T5 construct: purchased DiscoveRx KINOMEscan
Briefly: biochemical binding or enzymatic assay. Particulars: Novartis. How it is done: as §3

Another assay addresses T6, PKN2 (Homo sapiens, UniProt Q16513).
T6 construct: purchased DiscoveRx KINOMEscan
Briefly: biochemical binding or enzymatic assay. Particulars: Novartis. As to the method: as §3

Another assay deals with T7, PCTK3 (Homo sapiens, UniProt Q07002).
T7 construct: purchased DiscoveRx KINOMEscan
Briefly: biochemical binding or enzymatic assay. As to conditions: Ambit. As to the method:
as §3

In the next assay the target is T8, YES (Homo sapiens, UniProt P07947).
T8 construct: purchased DiscoveRx KINOMEscan
Briefly: biochemical binding or enzymatic assay. As to conditions: Novartis. As to the method:
as §3

The target of the next assay is T9, KIT (Homo sapiens, UniProt P10721).
T9 construct: purchased DiscoveRx KINOMEscan
Briefly: biochemical binding or enzymatic assay. Particulars: Novartis. How it is done: as §3

The target of the next assay is T10, ZAP70 (Homo sapiens, UniProt P43403).
T10 construct: purchased DiscoveRx KINOMEscan
T10 sequence (P43403 1-619): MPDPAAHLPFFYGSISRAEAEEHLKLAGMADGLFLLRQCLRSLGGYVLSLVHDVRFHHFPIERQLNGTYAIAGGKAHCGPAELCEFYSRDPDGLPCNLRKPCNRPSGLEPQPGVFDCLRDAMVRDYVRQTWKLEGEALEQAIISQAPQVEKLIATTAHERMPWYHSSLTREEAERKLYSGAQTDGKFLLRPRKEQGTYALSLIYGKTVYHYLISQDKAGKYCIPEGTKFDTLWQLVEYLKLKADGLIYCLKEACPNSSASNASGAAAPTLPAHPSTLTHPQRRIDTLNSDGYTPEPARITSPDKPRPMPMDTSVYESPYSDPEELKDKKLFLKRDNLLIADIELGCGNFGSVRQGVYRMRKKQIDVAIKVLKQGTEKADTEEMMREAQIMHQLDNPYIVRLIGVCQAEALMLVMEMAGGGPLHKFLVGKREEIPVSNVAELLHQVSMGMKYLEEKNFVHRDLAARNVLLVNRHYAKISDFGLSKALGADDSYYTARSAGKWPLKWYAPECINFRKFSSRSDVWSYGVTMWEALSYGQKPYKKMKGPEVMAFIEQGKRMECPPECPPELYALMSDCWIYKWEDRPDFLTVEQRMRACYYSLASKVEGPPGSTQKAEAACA
Briefly: biochemical binding or enzymatic assay. As to the method: as §3

In the next assay the target is T11, ERK1 (Homo sapiens, UniProt P27361).
T11 construct: purchased DiscoveRx KINOMEscan
Briefly: biochemical binding or enzymatic assay. As to conditions: Novartis. As to the method: as §3

The target in a further assay is T12, ERK2 (Homo sapiens, UniProt P28482).
T12 construct: purchased DiscoveRx KINOMEscan
Briefly: biochemical binding or enzymatic assay. Particulars: Novartis. As to the method: as §3

In the next assay the target is T13, PCTK1 (Homo sapiens, UniProt Q00536).
T13 construct: purchased DiscoveRx KINOMEscan
Briefly: biochemical binding or enzymatic assay. As to conditions: Ambit. As to the method:
as §3

Assay [3] has as its target T14, JAK1(JH2domain-pseudokinase) (Homo sapiens, UniProt P23458). Briefly: biochemical binding or enzymatic assay. Also on record: JAK1(JH2domain-pseudokinase). As to conditions: Novartis. As to the method:
as §3

Assay [4] has as its target T14, JAK1(JH2domain-pseudokinase). Briefly: KINOMEscan binding assay. Also on record: JAK1(JH2domain-pseudokinase); purchased DiscoveRx KINOMEscan. How it is done:
as §1, §2
Target sequence in this assay (P23458 561-860 limits assumed): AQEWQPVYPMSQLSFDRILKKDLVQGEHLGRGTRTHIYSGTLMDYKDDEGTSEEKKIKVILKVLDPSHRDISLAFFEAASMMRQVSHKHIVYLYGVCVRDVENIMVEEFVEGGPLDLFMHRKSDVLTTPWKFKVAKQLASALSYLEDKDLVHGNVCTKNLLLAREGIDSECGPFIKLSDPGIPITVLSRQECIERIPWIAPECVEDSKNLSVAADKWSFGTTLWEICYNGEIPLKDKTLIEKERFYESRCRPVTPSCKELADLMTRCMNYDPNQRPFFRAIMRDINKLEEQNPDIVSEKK

The next assay deals with CDK9 (Homo sapiens, UniProt P50750). Briefly: KINOMEscan binding assay. Also on record: purchased DiscoveRx KINOMEscan. As to conditions: read-out: % Retention on Solid Support. As to the method: as §1, §2
For assay [5], the target named is JAK1(JH1domain-catalytic) (Homo sapiens, UniProt P23458). Briefly: biochemical binding or enzymatic assay. Also on record: JAK1(JH1domain-catalytic). As to conditions: Novartis. How it is done: as §3
JAK1(JH1domain-catalytic), sequence (P23458 875-1153 limits assumed): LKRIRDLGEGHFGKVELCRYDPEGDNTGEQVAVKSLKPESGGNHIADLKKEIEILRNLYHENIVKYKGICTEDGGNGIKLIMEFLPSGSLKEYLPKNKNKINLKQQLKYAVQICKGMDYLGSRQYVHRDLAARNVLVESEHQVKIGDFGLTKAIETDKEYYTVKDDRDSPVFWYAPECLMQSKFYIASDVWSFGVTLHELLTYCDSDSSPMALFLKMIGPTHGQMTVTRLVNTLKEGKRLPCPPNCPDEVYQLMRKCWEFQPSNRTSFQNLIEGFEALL

JAK2(JH1domain-catalytic), sequence (O60674 840-1132 limits assumed): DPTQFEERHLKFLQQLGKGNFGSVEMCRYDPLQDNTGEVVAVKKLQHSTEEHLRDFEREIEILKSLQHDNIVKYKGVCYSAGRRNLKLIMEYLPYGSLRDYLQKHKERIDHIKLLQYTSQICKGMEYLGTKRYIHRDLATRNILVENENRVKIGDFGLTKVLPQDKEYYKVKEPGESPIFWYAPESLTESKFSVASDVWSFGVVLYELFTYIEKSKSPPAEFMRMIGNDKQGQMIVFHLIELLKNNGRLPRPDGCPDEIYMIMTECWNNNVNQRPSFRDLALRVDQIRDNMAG
CDK9, sequence (P50750 whole entry): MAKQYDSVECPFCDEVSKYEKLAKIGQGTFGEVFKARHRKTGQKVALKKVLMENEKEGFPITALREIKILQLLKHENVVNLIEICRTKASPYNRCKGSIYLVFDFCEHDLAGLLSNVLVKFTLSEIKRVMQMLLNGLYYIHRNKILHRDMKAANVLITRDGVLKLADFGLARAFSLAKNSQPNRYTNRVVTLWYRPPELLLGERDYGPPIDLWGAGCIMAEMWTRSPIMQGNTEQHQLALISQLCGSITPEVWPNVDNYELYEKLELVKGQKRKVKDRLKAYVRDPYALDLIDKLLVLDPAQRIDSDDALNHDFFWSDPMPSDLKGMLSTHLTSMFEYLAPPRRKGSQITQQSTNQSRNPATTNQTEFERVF
T13 sequence (Q00536 whole entry): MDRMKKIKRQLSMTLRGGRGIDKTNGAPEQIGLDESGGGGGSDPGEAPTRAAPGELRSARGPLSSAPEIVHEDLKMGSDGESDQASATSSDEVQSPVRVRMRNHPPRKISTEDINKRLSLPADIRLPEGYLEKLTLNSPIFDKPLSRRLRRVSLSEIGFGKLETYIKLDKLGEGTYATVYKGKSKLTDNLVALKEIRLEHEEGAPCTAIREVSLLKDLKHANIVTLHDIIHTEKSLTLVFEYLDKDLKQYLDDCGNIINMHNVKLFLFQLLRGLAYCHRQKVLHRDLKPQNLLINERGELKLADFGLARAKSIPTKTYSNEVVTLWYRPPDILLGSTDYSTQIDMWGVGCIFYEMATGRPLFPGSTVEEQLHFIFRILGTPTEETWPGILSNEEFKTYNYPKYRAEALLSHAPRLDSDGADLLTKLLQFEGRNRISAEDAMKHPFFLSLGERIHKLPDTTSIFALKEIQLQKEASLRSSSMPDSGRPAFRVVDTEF
T11 sequence (P27361 whole entry): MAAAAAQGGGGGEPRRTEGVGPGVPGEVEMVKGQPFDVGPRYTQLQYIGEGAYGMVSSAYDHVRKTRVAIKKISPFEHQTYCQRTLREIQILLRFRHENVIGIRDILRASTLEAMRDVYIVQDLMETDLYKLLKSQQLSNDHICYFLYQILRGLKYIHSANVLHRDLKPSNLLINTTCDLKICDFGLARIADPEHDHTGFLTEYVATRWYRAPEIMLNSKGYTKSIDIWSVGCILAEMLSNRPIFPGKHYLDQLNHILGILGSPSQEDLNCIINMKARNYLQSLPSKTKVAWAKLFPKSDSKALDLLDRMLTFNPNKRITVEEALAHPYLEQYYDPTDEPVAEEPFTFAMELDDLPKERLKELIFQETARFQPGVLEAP
T1 sequence (Q06187 whole entry): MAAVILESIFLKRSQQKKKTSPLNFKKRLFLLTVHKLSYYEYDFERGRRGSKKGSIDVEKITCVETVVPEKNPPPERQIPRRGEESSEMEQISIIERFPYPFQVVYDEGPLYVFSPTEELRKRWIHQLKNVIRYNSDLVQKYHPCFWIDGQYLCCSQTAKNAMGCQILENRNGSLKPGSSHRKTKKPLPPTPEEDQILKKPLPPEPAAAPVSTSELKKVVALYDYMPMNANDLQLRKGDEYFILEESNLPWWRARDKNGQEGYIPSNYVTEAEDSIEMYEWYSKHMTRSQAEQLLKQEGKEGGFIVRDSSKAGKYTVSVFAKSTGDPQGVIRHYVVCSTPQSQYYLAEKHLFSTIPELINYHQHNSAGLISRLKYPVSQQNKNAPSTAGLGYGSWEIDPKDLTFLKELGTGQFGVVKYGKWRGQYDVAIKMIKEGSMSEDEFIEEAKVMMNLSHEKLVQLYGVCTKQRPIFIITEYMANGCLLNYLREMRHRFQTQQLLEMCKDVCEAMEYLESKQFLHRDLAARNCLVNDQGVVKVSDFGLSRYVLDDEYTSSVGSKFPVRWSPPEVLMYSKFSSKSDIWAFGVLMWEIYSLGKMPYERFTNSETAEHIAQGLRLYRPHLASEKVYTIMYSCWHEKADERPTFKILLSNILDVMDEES
T3 sequence (Q05397 whole entry): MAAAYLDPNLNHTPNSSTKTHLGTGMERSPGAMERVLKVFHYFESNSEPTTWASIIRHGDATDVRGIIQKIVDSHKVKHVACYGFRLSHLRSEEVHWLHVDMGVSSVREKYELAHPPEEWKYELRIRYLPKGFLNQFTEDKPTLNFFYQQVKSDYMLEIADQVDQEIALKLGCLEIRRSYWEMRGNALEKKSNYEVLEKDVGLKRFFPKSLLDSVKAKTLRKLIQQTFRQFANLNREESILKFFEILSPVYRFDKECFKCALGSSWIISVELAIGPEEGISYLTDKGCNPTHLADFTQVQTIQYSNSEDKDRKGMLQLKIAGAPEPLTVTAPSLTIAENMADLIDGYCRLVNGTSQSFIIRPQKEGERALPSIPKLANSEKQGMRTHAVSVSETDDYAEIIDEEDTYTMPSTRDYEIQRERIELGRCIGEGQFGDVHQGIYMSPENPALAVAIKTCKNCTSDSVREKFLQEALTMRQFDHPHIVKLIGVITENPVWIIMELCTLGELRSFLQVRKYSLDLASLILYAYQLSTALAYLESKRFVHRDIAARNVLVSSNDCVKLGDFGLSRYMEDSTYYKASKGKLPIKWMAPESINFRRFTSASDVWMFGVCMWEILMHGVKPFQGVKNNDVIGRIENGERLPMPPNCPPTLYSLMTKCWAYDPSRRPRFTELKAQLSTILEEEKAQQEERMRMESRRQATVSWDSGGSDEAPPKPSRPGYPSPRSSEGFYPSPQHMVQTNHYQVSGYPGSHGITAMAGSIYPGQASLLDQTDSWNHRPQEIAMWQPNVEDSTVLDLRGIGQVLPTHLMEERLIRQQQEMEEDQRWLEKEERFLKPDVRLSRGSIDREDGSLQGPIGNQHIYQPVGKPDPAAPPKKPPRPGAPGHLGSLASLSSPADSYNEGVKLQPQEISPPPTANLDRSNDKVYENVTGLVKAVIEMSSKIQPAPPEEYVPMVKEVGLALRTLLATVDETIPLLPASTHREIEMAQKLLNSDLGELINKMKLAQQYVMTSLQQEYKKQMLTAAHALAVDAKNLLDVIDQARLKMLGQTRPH
T8 sequence (P07947 whole entry): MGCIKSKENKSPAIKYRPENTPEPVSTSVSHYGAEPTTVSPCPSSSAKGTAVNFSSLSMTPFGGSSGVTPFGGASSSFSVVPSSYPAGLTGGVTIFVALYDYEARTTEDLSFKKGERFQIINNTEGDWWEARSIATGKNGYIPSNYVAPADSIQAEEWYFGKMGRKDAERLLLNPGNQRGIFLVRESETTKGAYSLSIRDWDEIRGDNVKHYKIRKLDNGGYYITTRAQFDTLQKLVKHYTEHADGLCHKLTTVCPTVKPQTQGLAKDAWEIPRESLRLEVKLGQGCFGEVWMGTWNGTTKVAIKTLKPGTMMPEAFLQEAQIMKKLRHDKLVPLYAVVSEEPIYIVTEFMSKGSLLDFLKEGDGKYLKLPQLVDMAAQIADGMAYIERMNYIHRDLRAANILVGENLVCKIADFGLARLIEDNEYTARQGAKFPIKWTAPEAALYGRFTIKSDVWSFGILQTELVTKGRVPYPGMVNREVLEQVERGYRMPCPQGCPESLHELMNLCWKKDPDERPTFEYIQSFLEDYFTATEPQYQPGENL
T12 sequence (P28482 whole entry): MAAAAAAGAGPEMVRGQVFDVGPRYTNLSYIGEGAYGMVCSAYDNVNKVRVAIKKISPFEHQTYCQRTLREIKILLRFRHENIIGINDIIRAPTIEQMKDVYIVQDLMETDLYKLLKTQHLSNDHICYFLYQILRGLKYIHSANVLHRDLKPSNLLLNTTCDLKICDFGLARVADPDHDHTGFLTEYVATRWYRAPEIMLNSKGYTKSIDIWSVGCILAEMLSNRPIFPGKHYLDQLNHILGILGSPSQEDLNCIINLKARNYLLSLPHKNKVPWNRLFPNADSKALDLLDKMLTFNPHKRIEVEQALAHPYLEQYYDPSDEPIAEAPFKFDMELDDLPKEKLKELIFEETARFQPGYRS

For the molecule `N[C@H]1CC[C@H](Nc2cc(-c3cccc(NCc4cccc(F)c4)n3)c(Cl)cn2)CC1` [i-CDK9, N2′-(trans-4-aminocyclohexyl)-5′-chloro-N6-(3-fluorobenzyl)-2,4′-bipyridine-2′,6-diamine], the “% Retention on Solid Support” value in assay [1] (1 µM i-CDK9) was 76%; in [1] (10 µM i-CDK9) it was 84%; in assay [4] (1 µM i-CDK9), 85%; in [4] (10 µM i-CDK9), 81%. The pIC50 (on BTK; in assay [2]; on FAK; on ALK; on FLT3; on PKN2) was below 5.00 each time. Besides, the negative logarithm of the IC50 (pIC50) on PCTK3 was below 6.35; at YES, below 5.00; at KIT, below 5.00; on ZAP70 it was below 5.00; on ERK1 it was below 5.00; on ERK2 it was below 5.00. Further, the pIC50 was below 6.85 at PCTK1, below 5.00 in [3] and below 5.00 in assay [5]. The remaining binding at 1 µM at CDK9 (1 µM i-CDK9) is 5.1%. Besides, the remaining binding at 10 µM on CDK9 (10 µM i-CDK9) came to 0%.
